From ChEMBL document CHEMBL3886463, “Triazolopyridine compounds” (2016)

Molecular target: cAMP and cAMP-inhibited cGMP 3',5'-cyclic phosphodiesterase 10A (Homo sapiens, UniProt Q9Y233)
Experiment: Inhibition Assay: The human PDE10A full length assay was performed in 96-well micro titer plates. The reaction mixture of 50 ul contained 20 mM HEPES pH=7.5/10 mM MgCl2/0.05 mg/ml BSA (Sigma cat. # A-7906), 50 nM cGMP (Sigma, cat. # G6129) and 50 nM [3H]-cGMP (GE Healthcare, cat. # TRK392 S.A. 13.2 Ci/mmol), 3.75 ng/well PDE10A enzyme (Enzo Life Science, Lausen, Switzerland cat # SE-534) with or without a specific test compound. A range of concentrations of the potential inhibitor was used to generate data for calculating the concentration of inhibitor resulting in 50% of the effect (e.g. IC50, the concentration of the competitor inhibiting PDE10A activity by 50%). Non-specific activity was tested without the enzyme. The reaction was initiated by the addition of the substrate solution (cGMP and [3H]-cGMP) and allowed to progress for 20 minutes at room temperature. The reaction was terminated by adding 25 ul of YSi-SPA scintillation beads (GE Healthcare, cat. # RPNQ0150) in 18 mM zinc sulphate.

Chain of cAMP and cAMP-inhibited cGMP 3',5'-cyclic phosphodiesterase 10A (Q9Y233 whole entry): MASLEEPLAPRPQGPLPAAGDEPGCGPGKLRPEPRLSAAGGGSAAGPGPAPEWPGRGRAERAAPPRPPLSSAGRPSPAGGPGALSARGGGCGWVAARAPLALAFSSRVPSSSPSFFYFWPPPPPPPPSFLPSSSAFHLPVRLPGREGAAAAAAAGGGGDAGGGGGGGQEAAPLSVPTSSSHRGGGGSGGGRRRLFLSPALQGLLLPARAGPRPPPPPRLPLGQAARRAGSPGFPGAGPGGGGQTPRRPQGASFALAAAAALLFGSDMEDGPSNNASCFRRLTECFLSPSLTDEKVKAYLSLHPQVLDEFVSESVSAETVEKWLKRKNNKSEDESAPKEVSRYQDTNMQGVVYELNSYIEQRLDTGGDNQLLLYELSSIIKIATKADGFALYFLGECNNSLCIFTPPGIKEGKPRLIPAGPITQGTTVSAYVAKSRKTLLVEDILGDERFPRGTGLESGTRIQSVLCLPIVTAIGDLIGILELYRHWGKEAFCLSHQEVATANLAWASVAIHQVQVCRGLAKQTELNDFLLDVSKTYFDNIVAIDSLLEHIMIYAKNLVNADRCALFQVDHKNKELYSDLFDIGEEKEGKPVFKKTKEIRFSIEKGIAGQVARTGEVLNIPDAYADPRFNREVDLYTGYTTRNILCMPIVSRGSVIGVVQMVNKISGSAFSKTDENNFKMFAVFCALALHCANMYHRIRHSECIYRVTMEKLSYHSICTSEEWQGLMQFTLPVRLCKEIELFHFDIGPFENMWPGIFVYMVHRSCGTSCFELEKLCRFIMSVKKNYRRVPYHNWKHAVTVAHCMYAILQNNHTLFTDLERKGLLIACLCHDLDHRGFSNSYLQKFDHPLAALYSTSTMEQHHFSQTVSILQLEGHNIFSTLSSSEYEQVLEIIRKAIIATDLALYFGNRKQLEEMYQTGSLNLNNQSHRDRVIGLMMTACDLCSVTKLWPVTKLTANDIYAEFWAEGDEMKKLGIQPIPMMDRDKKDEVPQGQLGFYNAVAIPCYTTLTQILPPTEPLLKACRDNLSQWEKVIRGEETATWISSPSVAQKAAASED

IC50 [nM] | Structure (SMILES)
3.3 | CCN(CC)c1nc2ccc(NC(=O)c3c(C(=O)N4CCCC4)cnn3C)cn2n1
23.1 | Cn1ncc(C(=O)N2CCC2)c1C(=O)Nc1ccc2nc(N3CCOCC3)nn2c1
